Patent publication US20030138946A1

Columns and labels:
[1] = system: CD8^+ 2C lymph node cells; assay: IL-2 production by CD8+ 2C lymph node cells (CTLL indicator line 3HTdR); type: cell-based, mouse; conditions: peptide 10 μM
Method: Using a standard tissue culture system (Cai, Z. and Sprent, J. (1994) J. Exp. Med. 179: 2005-2015), doses of 5×10^4 purified CD8^+ 2C lymph node (LN) cells were cultured at 37° C. with doses of 3×10^5 transfected fly cells ±peptides (10 μM final concentration). Peptides were synthesized by R. W. Johnson Pharmaceutical Research Institute (Sykulev, et al. (1994) Immunity 1: 15-22. Proliferative responses were measured by adding ^3HTdR (1 μCi/well) 8 hours prior to harvest. IL-2 production was measured by removing supernatants from the cultures at 48 hours and adding 50 μl supernatant to an IL-2 responsive indicator cell line (CTLL); proliferation of the indicator line was measured by addition of ^3HTdR. The data shown in Table 2 are the means of triplicate cultures. The transfected Drosophila S2 cells die rapidly at 37° C. and fail to incorporate ^3HTdR at this temperature.

CD8^+ 2C cells = assay: Dose-response of day 3 proliferation of CD8+ 2C cells to peptides on transfected Drosophila APC; type: cell-based, mouse; conditions: for proliferative response: 1 nM peptide
Method: Responses to p2Ca (above) and QL9 (below) were measured by culturing 5×10^4 purified CD8^+ 2C cells with 2×10^5 Drosophila cells in the presence or absence of the indicated concentrations of peptides for 3 days. [^3H] TdR was added during the last 8 hours of culture; rIL-2 was added at a final concentration of 20 units/ml. The data are the mean of triplicate cultures. When supplemented with exogenous IL-2, however, both peptides stimulated significant proliferative responses at high doses (10 μM). The proliferative responses elicited by QL9 were far stronger than for p2Ca (note the large difference between the scales of x-axes of the upper and the lower panel).
Dose-response relationships for proliferation on day 3 elicited by Drosophila cells transfected with L^d.B7.1CAM and presenting p2Ca peptide were compared to those elicited by Drosophila cells transfected with L^d.B7, L^d.ICAM or L^d.B7.1CAM presenting QL9 peptide. Drosophila APC (2×10^5 cells) were cultured with 5×10^4 CD8^+ 2C cells for three days in the presence or absence of peptides. [^3H] TdR was added during the last 8 hours of culture; no IL-2 was added to the cultures.

2C+ T-cells = type: cell-based, mouse
soluble 2C TCR molecules = conditions: peptide complexed to L^d; association constant; cited from earlier work

Gln-Leu-Ser-Pro-Phe-Pro-Phe-Asp-Leu [QL9]
IL-2 Production (Day 2) ^3HTdR incorporation, fly cells expressing L^d ([1]; APC L^d): 0.1 cpm × 10^3 | IL-2 Production (Day 2) ^3HTdR incorporation, fly cells expressing L^d + B7.1 ([1]; APC L^d + B7.1): 0.4 cpm × 10^3 | IL-2 Production (Day 2) ^3HTdR incorporation, fly cells expressing L^d + B7.1 + ICAM-1 ([1]; APC L^d + B7.1 + ICAM-1): 158.6 cpm × 10^3 | IL-2 Production (Day 2) ^3HTdR incorporation, fly cells expressing L^d + ICAM-1 ([1]; APC L^d + ICAM-1): 0.2 cpm × 10^3 | IL-2 Production (Day 2) ^3HTdR incorporation, L^d + B7.1 combined with L^d + ICAM-1 ([1]; mixture of two APC lines): 0.5 cpm × 10^3 | proliferative response (CD8^+ 2C cells; L^d.B7 and L^d.ICAM APC): < 100 cpm | proliferative response (CD8^+ 2C cells; L^d.B7.1CAM APC): > 10,000 cpm | effect of high peptide dose on day 3 proliferative response (CD8^+ 2C cells; 10 μM peptide, L^d.B7.1CAM APC): inhibited | proliferation of 2C CD8+ cells (CD8^+ 2C cells; Drosophila cells with L^d alone, no exogenous lymphokines): failed | lowest peptide dose with clearly apparent day 3 proliferative response (CD8^+ 2C cells; L^d.B7.1CAM APC, no IL-2): ≤ 10 pM | peptide concentration giving maximal day 3 proliferative response (CD8^+ 2C cells; L^d.B7.1CAM APC, no IL-2): 100 nM | thymidine incorporation (2C+ T-cells): above 100,000 cpm per well | affinity for 2C TCR molecules (soluble 2C TCR molecules): 2e+07 M⁻¹
